Paper PMC6429214, “Design, Synthesis and Biological Evaluation of Isoxazole-Based CK1 Inhibitors Modified with Chiral Pyrrolidine Scaffolds” (Molecules, 2019)

How the values were obtained:
Assay in all cases: 33PanQinase panel
Assay type in all cases: biochemical
[1] = target: T1, ABL2 (Homo sapiens, UniProt P42684); details: ABL2, 1 µM; read-out: Residual Activity (%)
T1 construct: purchased ProQinase
How it was run: (§1)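 Kinases were screened with the inhibitor at a single concentration of 1 µM. Activity was measured radiometrically with 33P, and each reaction mix contained 1% DMSO. Data are expressed as percentage residual activity compared with DMSO control.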

[2] = target: T2, TGFB-R2 (Homo sapiens, UniProt P37173); details: TGFB-R2, 1 µM; read-out: Residual Activity (%)
T2 construct: purchased ProQinase
How it was run: as §1

[3] = target: T3, MAP3K1 (Homo sapiens, UniProt Q13233); details: MAP3K1, 1 µM; read-out: Residual Activity (%)
T3 construct: purchased ProQinase
How it was run: as §1

[4] = target: T4, CDK5/p25NCK (Homo sapiens, UniProt Q00535); details: read-out: Residual Activity (%)
T4 construct: purchased ProQinase
How it was run: as §1

[5] = target: T5, PRKG2 (Homo sapiens, UniProt Q13237); details: PRKG2, 1 µM; read-out: Residual Activity (%)
T5 construct: purchased ProQinase
How it was run: as §1

[6] = target: T6, PKC-alpha (Homo sapiens, UniProt P17252); details: read-out: Residual Activity (%)
T6 construct: purchased ProQinase
How it was run: as §1

[7] = target: T7, BLK (Homo sapiens, UniProt P51451); details: read-out: Residual Activity (%)
T7 construct: purchased ProQinase
How it was run: as §1

[8] = target: T8, CDK9/CycT1 (Homo sapiens, UniProt P50750); details: CDK9/CycT1, 1 µM; read-out: Residual Activity (%)
T8 construct: purchased ProQinase
How it was run: as §1

[9] = target: T9, TYK2 (Homo sapiens, UniProt P29597); details: TYK2, 1 µM; read-out: Residual Activity (%)
T9 construct: purchased ProQinase
How it was run: as §1

[10] = target: T10, CDK9/CycK (Homo sapiens, UniProt P50750); details: read-out: Residual Activity (%)
T10 construct: purchased ProQinase
How it was run: as §1

[11] = target: T11, CK1-gamma3 (Homo sapiens, UniProt Q9Y6M4); details: CK1-gamma3, 1 µM; read-out: Residual Activity (%)
T11 construct: purchased ProQinase
How it was run: as §1

[12] = target: T12, PKC-beta1 (Homo sapiens, UniProt P05771); details: PKC-beta1, 1 µM; read-out: Residual Activity (%)
T12 construct: purchased ProQinase
How it was run: as §1

[13] = target: T13, TLK1 (Homo sapiens, UniProt Q9UKI8); details: TLK1, 1 µM; read-out: Residual Activity (%)
T13 construct: purchased ProQinase
How it was run: as §1

[14] = target: T14, MAP3K10 (Homo sapiens, UniProt Q02779); details: MAP3K10, 1 µM; read-out: Residual Activity (%)
T14 construct: purchased ProQinase
How it was run: as §1

[15] = target: T15, MARK4 (Homo sapiens, UniProt Q96L34); details: MARK4, 1 µM; read-out: Residual Activity (%)
T15 construct: purchased ProQinase
How it was run: as §1

[16] = target: T16, CAMK2A (Homo sapiens, UniProt Q9UQM7); details: read-out: Residual Activity (%)
T16 construct: purchased ProQinase
How it was run: as §1

[17] = target: T17, MST4 (Homo sapiens, UniProt Q9P289); details: MST4, 1 µM; read-out: Residual Activity (%)
T17 construct: purchased ProQinase
How it was run: as §1

[18] = target: T18, CLK1 (Homo sapiens, UniProt P49759); details: CLK1, 1 µM; read-out: Residual Activity (%)
T18 construct: purchased ProQinase
How it was run: as §1

[19] = target: T19, MKK7 (Homo sapiens, UniProt O14733); details: MKK7, 1 µM; read-out: Residual Activity (%)
T19 construct: purchased ProQinase
How it was run: as §1

[20] = target: T20, FGF-R2 (Homo sapiens, UniProt P21802); details: FGF-R2, 1 µM; read-out: Residual Activity (%)
T20 construct: purchased ProQinase
How it was run: as §1

[21] = target: T21, SAK (Homo sapiens, UniProt O00444); details: read-out: Residual Activity (%)
T21 construct: purchased ProQinase
How it was run: as §1

[22] = target: T22, LCK (Homo sapiens, UniProt P06239); details: read-out: Residual Activity (%)
T22 construct: purchased ProQinase
Description: (§2) Figure 5 Dendrogram representation of the selectivity profile of 29d at a concentration of 1 μM in a panel of 320 wild-type kinases (ProQinase, Freiburg, Germany). The residual kinase activity was determined compared to DMSO control. Images were generated using TREEspot Software Tool, DISCOVERX CORPORATION 2010. […]
(§3) Table S2. Selectivity profile of compound 29d. The inhibitor has been screened at a concentration of 1 µM over a panel of 320 wild-type protein kinases by ProQinase GmbH (Freiburg, Germany) using an activity-based radiometric 33PanQinase® assay. Results are presented as percentage of residual kinase activity relative to […]
(§4) control. The final DMSO concentration was 1 % in each reaction-mix. Classification of protein kinase families refers to Manning et al. (Manning, G.; Whyte, D. B.; Martinez, R.; Hunter, T.; Sudarsanam, S. The Protein Kinase Complement of the Human Genome. Science 2002, 298, 1912–1934): AGC = containing PKA, PKG, PKC families; […] = containing Cdk, MAPK, GSK3, CLK families; STE = homologs of yeast sterile 7, sterile 11, sterile 20 kinases; TK = tyrosine kinase; TKL = tyrosine kinase-like.
(§5) Kinase name Kinase family Residual Activity (%)

[23] = target: T23, BRSK2 (Homo sapiens, UniProt Q8IWQ3); details: BRSK2, 1 µM; read-out: Residual Activity (%)
T23 construct: purchased ProQinase
Description: as §2, §3, §4, §5

[24] = target: T24, BMPR1A (Homo sapiens, UniProt P36894); details: read-out: Residual Activity (%)
T24 construct: purchased ProQinase
Description: as §2, §3, §4, §5

[25] = target: T25, SNARK (Homo sapiens, UniProt Q9H093); details: read-out: Residual Activity (%)
T25 construct: purchased ProQinase
Description: as §2, §3, §4, §5

[26] = target: T26, SRPK2 (Homo sapiens, UniProt P78362); details: SRPK2, 1 µM; read-out: Residual Activity (%)
T26 construct: purchased ProQinase
Description: as §2, §3, §4, §5

T21 sequence (O00444 whole entry): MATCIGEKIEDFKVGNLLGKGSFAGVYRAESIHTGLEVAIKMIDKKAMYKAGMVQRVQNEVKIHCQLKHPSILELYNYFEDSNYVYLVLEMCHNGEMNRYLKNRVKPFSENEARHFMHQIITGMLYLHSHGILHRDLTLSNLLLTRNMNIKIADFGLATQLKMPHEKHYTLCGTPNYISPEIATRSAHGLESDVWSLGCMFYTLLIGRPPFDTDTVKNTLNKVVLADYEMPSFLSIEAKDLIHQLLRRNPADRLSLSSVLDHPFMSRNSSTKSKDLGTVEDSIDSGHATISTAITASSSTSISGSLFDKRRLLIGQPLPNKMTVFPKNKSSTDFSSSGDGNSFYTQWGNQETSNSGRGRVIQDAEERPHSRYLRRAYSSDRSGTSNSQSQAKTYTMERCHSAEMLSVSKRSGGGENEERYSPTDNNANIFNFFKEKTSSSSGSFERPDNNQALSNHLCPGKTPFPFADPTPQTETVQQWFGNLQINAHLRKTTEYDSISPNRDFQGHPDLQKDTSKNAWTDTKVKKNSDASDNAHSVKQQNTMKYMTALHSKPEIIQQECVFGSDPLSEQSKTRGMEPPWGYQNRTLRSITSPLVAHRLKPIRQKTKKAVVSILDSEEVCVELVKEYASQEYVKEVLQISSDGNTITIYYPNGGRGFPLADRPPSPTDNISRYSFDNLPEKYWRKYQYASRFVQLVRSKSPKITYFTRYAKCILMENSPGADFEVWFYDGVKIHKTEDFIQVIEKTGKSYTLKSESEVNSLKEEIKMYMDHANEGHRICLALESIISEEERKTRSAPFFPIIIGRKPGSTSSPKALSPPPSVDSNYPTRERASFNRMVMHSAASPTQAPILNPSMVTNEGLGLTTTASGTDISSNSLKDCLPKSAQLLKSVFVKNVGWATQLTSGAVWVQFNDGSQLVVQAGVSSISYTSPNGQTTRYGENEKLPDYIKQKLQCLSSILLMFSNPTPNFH
T18 sequence (P49759 whole entry): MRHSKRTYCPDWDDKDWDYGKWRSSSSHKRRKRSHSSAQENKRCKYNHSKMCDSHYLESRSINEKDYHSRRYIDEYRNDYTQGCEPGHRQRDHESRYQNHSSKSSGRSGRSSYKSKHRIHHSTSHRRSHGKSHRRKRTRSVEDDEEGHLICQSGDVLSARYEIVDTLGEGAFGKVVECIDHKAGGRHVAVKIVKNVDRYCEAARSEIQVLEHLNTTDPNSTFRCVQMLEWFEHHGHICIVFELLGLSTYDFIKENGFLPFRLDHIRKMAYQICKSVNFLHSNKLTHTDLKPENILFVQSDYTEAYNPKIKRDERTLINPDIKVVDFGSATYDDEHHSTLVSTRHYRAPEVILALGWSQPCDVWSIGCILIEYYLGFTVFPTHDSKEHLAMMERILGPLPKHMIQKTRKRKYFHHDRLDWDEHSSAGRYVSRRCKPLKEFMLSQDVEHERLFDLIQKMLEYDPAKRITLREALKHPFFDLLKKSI
T22 sequence (P06239 whole entry): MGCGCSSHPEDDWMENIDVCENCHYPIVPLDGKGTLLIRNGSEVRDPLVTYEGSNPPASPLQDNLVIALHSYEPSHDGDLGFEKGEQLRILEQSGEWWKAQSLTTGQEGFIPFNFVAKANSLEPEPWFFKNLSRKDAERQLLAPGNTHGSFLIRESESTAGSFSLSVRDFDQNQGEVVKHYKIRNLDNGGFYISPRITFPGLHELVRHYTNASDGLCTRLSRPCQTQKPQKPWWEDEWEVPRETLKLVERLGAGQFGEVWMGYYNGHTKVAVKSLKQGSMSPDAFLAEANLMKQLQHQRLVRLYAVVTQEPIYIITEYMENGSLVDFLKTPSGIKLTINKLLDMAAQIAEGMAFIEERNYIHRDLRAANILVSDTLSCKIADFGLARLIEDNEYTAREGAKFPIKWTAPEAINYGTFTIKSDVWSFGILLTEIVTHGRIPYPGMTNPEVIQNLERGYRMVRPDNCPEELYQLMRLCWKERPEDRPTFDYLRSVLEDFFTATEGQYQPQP
T10 sequence (P50750 whole entry): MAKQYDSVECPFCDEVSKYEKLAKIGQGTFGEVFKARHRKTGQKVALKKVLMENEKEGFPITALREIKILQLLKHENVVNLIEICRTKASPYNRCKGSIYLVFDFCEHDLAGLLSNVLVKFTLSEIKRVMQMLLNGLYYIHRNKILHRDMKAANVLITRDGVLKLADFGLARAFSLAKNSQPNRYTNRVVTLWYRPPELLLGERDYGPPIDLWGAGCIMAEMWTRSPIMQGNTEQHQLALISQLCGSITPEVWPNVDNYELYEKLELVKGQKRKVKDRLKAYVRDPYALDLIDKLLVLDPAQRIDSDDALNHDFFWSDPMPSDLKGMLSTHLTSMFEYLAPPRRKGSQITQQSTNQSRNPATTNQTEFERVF
T10 sequence (O75909 whole entry partner): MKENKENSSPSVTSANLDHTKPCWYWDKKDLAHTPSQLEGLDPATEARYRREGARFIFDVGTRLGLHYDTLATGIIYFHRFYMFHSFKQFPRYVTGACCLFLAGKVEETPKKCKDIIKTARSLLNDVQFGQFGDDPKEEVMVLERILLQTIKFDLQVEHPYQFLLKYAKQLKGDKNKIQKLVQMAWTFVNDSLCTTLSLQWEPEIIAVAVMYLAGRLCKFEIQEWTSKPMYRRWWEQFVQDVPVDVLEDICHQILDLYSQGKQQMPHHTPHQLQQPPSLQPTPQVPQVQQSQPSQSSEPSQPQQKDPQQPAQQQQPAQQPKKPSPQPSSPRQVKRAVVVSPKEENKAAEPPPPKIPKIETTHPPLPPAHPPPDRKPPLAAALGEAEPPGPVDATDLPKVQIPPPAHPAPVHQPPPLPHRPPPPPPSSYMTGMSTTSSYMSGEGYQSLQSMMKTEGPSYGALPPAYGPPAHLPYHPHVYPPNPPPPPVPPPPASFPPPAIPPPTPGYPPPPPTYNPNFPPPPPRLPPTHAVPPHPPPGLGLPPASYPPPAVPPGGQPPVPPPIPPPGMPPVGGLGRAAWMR
T8 sequence (P50750 whole entry): as the sequence (P50750 whole entry) above
T8 sequence (O60563 whole entry partner): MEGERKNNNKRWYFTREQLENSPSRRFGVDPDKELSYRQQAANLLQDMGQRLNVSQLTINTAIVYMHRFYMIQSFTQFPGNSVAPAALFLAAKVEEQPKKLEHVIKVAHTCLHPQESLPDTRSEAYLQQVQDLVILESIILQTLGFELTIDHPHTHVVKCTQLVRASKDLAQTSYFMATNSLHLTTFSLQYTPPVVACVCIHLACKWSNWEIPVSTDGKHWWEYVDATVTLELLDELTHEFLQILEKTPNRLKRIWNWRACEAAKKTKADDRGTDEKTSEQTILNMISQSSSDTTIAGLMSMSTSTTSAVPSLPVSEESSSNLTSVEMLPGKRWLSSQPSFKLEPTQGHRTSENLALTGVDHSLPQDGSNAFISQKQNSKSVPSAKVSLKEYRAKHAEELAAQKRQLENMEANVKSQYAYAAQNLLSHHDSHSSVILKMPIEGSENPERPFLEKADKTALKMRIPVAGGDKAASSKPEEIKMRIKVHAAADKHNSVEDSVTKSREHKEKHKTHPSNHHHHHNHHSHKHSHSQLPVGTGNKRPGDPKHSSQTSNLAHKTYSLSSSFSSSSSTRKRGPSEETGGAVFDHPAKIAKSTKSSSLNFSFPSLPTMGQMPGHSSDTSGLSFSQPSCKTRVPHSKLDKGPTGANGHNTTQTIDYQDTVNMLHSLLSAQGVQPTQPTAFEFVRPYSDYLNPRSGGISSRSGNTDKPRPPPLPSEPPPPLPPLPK
T11 sequence (Q9Y6M4 whole entry): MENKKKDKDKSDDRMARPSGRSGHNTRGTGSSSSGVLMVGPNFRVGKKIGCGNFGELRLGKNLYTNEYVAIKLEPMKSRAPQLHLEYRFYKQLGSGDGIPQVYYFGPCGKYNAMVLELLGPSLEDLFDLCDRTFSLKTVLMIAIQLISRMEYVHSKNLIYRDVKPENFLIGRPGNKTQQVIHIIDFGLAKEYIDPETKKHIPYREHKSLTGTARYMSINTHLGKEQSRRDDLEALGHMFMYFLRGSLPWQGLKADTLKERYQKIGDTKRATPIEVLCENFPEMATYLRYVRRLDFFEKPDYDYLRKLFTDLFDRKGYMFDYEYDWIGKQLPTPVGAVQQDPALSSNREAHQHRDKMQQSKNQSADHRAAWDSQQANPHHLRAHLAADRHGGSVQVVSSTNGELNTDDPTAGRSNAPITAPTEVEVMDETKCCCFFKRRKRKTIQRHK
T19 sequence (O14733 whole entry): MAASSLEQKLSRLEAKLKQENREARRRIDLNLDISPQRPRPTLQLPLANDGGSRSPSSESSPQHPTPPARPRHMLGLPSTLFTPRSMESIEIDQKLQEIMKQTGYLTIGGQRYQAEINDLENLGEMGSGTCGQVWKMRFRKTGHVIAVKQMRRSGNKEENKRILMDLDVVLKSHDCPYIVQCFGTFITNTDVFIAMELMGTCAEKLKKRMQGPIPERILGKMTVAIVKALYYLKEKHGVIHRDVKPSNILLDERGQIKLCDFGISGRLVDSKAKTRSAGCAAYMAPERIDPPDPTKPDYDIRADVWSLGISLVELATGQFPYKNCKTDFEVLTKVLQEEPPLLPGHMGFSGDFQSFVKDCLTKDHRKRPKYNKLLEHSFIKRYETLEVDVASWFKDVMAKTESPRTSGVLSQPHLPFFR
T17 sequence (Q9P289 whole entry): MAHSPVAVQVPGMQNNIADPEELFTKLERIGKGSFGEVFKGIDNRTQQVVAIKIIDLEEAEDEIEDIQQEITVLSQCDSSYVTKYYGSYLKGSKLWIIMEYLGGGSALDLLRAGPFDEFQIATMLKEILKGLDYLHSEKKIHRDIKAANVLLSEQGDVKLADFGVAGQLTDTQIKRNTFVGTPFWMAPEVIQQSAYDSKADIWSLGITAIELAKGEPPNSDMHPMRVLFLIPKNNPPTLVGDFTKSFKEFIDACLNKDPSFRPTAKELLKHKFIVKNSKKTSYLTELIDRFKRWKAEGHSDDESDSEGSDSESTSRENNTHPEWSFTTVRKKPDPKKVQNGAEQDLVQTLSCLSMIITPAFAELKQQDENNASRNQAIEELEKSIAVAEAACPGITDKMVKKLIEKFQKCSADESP

Structure (SMILES): COc1ccc(-c2cc(C(=O)Nc3cc(-c4c(-c5ccc(F)cc5)noc4C(C)C)ccn3)n(CC3NCC(O)C3O)c2)cc1 (centres unmarked) [29d]
- remaining activity at 1 µM [1]: 110%
- remaining activity at 1 µM [2]: 69%
- remaining activity at 1 µM [3]: 94%
- remaining activity at 1 µM [4]: 92%
- remaining activity at 1 µM [5]: 100%
- remaining activity at 1 µM [6]: 107%
- remaining activity at 1 µM [7]: 110%
- remaining activity at 1 µM [8]: 103%
- remaining activity at 1 µM [9]: 85%
- remaining activity at 1 µM [10]: 97%
- remaining activity at 1 µM [11]: 74%
- remaining activity at 1 µM [12]: 116%
- remaining activity at 1 µM [13]: 77%
- remaining activity at 1 µM [14]: 120%
- remaining activity at 1 µM [15]: 112%
- remaining activity at 1 µM [16]: 87%
- remaining activity at 1 µM [17]: 108%
- remaining activity at 1 µM [18]: 97%
- remaining activity at 1 µM [19]: 95%
- remaining activity at 1 µM [20]: 94%
- remaining activity at 1 µM [21]: 92%
- remaining activity at 1 µM [22]: 96%
- remaining activity at 1 µM [23]: 90%
- remaining activity at 1 µM [24]: 96%
- remaining activity at 1 µM [25]: 123%
- remaining activity at 1 µM [26]: 107%
